Experimental data from US12576109B2, “Allogeneic human plasma and platelet derived products and uses thereof” (Consano Bio, Inc., priority 2024, dated 2026).

B1: PDGF-BB: PDGF-BB in cell media, positive control of the scratch assay (protein, UniProt P01127 82-190, looked up)
Platelet-derived growth …: SLGSLTIAEPAMIAECKTRTEVFEISRRLIDRTNANFLVWPPCVEVQRCSGCCNNRNVQCRPTQVQLRPVQVRKIEIVRKKPIFKKATVTLEDHLACKCETVAAARPVT

Assays:
THP-1 cells = test: LPS-induced inflammation in THP-1 cells (MSD V-PLEX cytokines), Example 25; assay type: cell-based, human; settings: Candesartan 1 μg/mL; 500 ng LPS; 24 hours
Method: A composition comprising […] was prepared as described in Example 23 and sterile filtered, referred to as Composition […]. 300,000 THP-1 cells were plated per well. Control wells included media only. Cells were contacted with LPS and test articles as outlined in Tables 20 and 21. For a positive control, cells were administered 1.0 μg/mL Candesartan. Candesartan is a […] and known to reduce the production of cytokines. Specifically, candesartan is an angiotensin receptor subtype 1 inhibitor and was utilized as a positive control. The cells were incubated for 1 hour. The cells were incubated, and samples of the supernatant were collected at 4 hours and 24 hours. The remaining cells were collected and analyzed for total cell count and percent viability. The Meso Scale Discovery (MSD; Rockville, […]) V-PLEX kit (4-PLEX) with IL-1b, IL-6, IL-8, and TNF-α were used to analyze the cytokines in the media at 4 and 24 hours after LPS stimulation.

[1] = test system: normal human dermal fibroblasts (NHDF) cells; test: Scratch assay (in vitro wound closure); assay type: cell-based; settings: 3.7 ng/mL PDGF-BB, positive control
Method: The test articles are outlined in Table 30 below. Briefly, AHPPDP was prepared based on the methods disclosed herein.
3,000 normal human dermal fibroblasts (NHDF) cells were plated per well. […] Vehicle at 9% concentration was the negative control.
The output measures of the scratch assay were, total number of nuclei per well, sum of cell area per well, and sum of empty area per well.

Row | Molecule | IL1-beta (THP-1 cells) | IL-6 (THP-1 cells) | IL-8 (THP-1 cells) | TNF-alpha (THP-1 cells) | wound healing [1]
1 | CCOc1nc2cccc(C(=O)O)c2n1Cc1ccc(-c2ccccc2-c2nnn[nH]2)cc1 [Candesartan] | 0 pg/mL | 0 pg/mL | 1.44 pg/mL | 0 pg/mL | –
2 | B1 | – | – | – | – | Wound healing compared to vehicle condition was obtained
